Measured values as given in patent publication US20220175795A1, “USE OF FULVESTRANT FOR THE THERAPEUTIC CARE OF CENTRAL CORE DISEASE” (UNIVERSITÉ GRENOBLE ALPES, priority 2019, published 2022).
“Also recorded” adds a separate entry of the source.

Legend:
[1] = test system: recombinant RyR1 cells (RyR1-Rec murine myotubes); details: 72 h, 0.1 µM
Procedure: The satellite cells were isolated from the skeletal muscles of the lower limbs of the neonate mice RyR1^Ctrl according to the procedure described in Marty et al, 2000.
The cells were seeded in 96 well plates (75,000 cells/well) previously coated with laminin. The cells were first cultured in the proliferation medium composed of Ham's F-10 Nutrient Mix (Life Technologies), 20% fetal calf serum (Life Technologies), 2% Ultroser G (PALL) and 2% Penicillin-Streptomycin (Life Technologies).
In order to induce floxed RyR1 gene recombination, the cells thus have been transduced 12 hours after seeding with adenoviruses allowing the expression of Cre recombinase, AdV-Cre (Utah University), to a multiplicity of infections (multiplicity of infection, or MOI) of 64. […]
The films were analyzed by the Fiji (Schindelin et al., 2012) and Prim (GraphPad) softwares.
For murine cells, the fluorescence measurements were performed on regions of interest each corresponding to a myotube, with several tens of myotubes measured for each repetition of the experiment.
The intensity of the calcium release was evaluated in response to a stimulation by KCl 140 mM (mimicking a depolarization at ˜0 mV). […]

[2] = test system: immortalized human MELA cells; test: Calcium imaging (Fluo-4, KCl 140 mM stimulation) on cells of a central core disease patient; assay type: cell-based; details: 7 days in differentiation medium, not statistically significant
Excerpt: The MELA cells are immortalized human cells derived from a biopsy of a patient suffering from central core disease, including in particular a quantitative defect of RyR1 and a calcium release defect (Rendu et al., 2013). These cells were immortalised by the team of Vincent Mouly (Institute of Myology, Paris).
(§1) The medium has been renewed 4 days after placing in the differentiation medium.
(§2) For human cells, the shape of the cells not allowing them to be distinguished individually in an accurate manner, the measurements were made on a single region of interest per well corresponding to the total surface covered by the myotubes. 4 to 6 wells were measured for each repetition of the experiment.
(§3) Fulvestrant was tested on human muscle cells having or not a calcium release defect (human cells CTRL or MELA), by incubation of 7 days in differentiation medium.

[3] = test system: RyR1^Rec mice (model of central core disease); test: Animal grip test (gripping time on inverted grid) in inducible RyR1 KO mice; assay type: in vivo
Procedure: For this study, an inducible and non-lethal model of KO mice for RyR1 developed in the laboratory was used. In these mice, exons 9 to 11 of the RYR1 gene are flanked by LoxP sites on both alleles (RYR1 fl/fl).
KO was induced by intraperitoneal injections of tamoxifen (Sigma) eight weeks after birth, at 1 mg/day for five days. It is important to note that all animals have received these injections, whether they have the HSA-Cre allele or not.
Exclusively in animals having the HSA-Cre allele, tamoxifen (TAM) causes the translocation of the Cre recombinase to the nucleus, thus allowing the recombination of the LoxP sites and the deletion of exons 9-11 from the RYR1 gene (FIG. 1). In order to improve the understanding, the mice in which the recombination cannot be made will be referred to as the RyR1^Ctrl mice in the following document. The recombinant mice after intraperitoneal administration of TAM will be referred to as RyR1^Rec mice.
For the treatment of animals, fulvestrant was prepared from a commercial solution of Faslodex 250 mg (AstraZeneca). This solution was diluted in physiological serum and 0.27 mg of fulvestrant was injected to each mouse (weight of 20 g) in 50 μl volume. The injections were carried out intramuscularly in the quadriceps once per week.
In order to evaluate the muscular strength of the animals, the mice were placed on a grid which was then turned upside down. The duration during which the mice remain gripped at the grid has been timed to a limit of 300 seconds. This measurement was carried out in a weekly manner over the entire population of mice of the study.
The strength of the animals is followed by a grip test (gripping test) once a week, just before the injections.

human control cells CTRL = test: Calcium imaging (Fluo-4, KCl 140 mM stimulation) on human control muscle cells; assay type: cell-based; details: 7 days in differentiation medium
Procedure: The CTRL cells are immortalized human cells from a biopsy of a healthy subject having no calcium release abnormality.
as §1, §2, §3

C[C@]12CC[C@@H]3c4ccc(O)cc4C[C@@H](CCCCCCCCC[S+]([O-])CCCC(F)(F)C(F)(F)F)[C@H]3[C@@H]1CC[C@@H]2O (some centres unmarked) [fulvestrant]
increase of the calcium release peak vs untreated cells [1]: 28%
magnitude of the calcium release peak (Fluo-4 fluorescence) [1]: 0.40+/−0.04
effect on calcium release ([2]; fulvestrant 100 nM): tends to increase calcium release; also recorded: tendency to improve the calcium release
effect on calcium release ([2]; fulvestrant 250 nM): tends to increase the release of calcium
strength (gripping time) vs untreated mice ([3]; female RyR1^Rec mice, intramuscular injection once a week, grip test weekly (limit 300 seconds)): very sharp improvement; also recorded: significantly improved
strength over the entire duration of the treatment ([3]; mice with induced central core disease, 75 days of treatment): did not lose strength
effect on calcium release (human control cells CTRL; fulvestrant 100 nM): has no effect; also recorded: does not have an effect
effect on calcium release (human control cells CTRL; fulvestrant 250 nM): has no effect; also recorded: does not have any effect
